The record followed here is PubChem BioAssay AID1259418 (Broad Institute, 2018).

Values joined by “and” are separate entries in the source; they are usually repeats but may differ in a detail not shown here. Equal values may be shown once. Results filed as inconclusive are left out. Active and inactive are the calls of the source.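 How the source made its calls: active means fitted half-maximal concentration of signal decrease at or below twice the sample's top tested concentration; inconclusive means flat curve between -70 and -30 percent, or poor fit; inactive means flat within 30 percent, signal rise, or potency above limit.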

The assay addresses T. gondii ME49Luc in IFN-y HeLa, luciferase, 72 h. In words: T. gondii growth inhibition with IFN-gamma, dose response, cell-based, ME49Luc, HeLa, luciferase, 72 h (AID 1259418).

For `N#Cc1ccc(-c2ccc([C@@H]3[C@@H](CO)N4C(=O)CNC[C@H]34)cc2)cc1`, the AC50 was 11.8 µM.

Turning to `O=C(c1cccc(F)c1)N1CC(=O)N2[C@H](CO)[C@H](c3ccc(/C=C/c4ccccc4)cc3)[C@@H]2C1`, the AC50 was 19.6 µM.

On to `CCCNC(=O)C[C@H]1CC[C@H]2[C@@H](COC[C@@H](O)CN2C(=O)Nc2ccc(Cl)c(Cl)c2)O1`, for which the half-maximal activity concentration (AC50) is 25.9 µM.

For `CC(C)Cc1ccc(S(=O)(=O)N2CCC[C@@H]2C(=O)NCCc2csc(-c3ccccc3)n2)cc1`, the AC50 is 12.4 µM.

`CCCNC(=O)N1CC(=O)N2[C@@H](CO)[C@@H](c3ccc(C#Cc4cccc(OC)c4)cc3)[C@@H]2C1`: the concentration at half-maximal activity (AC50) is 19.2 µM.

Turning to `O=c1c(O)c(-c2ccc(O)c(O)c2)oc2cc(O)cc(O)c12`, the AC50 is 17.6 µM.

As for `C1=C(c2ccccc2)CC(c2ccccc2)=NN=C1c1ccccc1`, the concentration at half-maximal activity (AC50) was 15.6 µM.

As to `CC(C)n1cnc2c(NCC3CC3)nc(C3CCN(C(=O)c4ccccc4)CC3)cc21`, the AC50 is 21.7 µM.

Turning to `CCOC(=O)c1nn(Cc2ccccc2)c2c1CN(C(=O)CN1CC(c3ccccc3)CC1=O)CC2` (stereo unspecified), the AC50 is > 39 µM (inactive).

Take `CC(C)CNC(=O)c1cc(-c2ccn(CC3CC3)n2)n2ccccc12`: the half-maximal activity concentration (AC50) was 13.3 µM.

Regarding `CCOc1ccc(-c2nc(CN3CCN(C(=O)Nc4ccc(F)cc4)CC3)c(C)o2)cc1`, the AC50 was 12.8 µM.

For the compound `CCOc1ccc(-c2nc3c(s2)CN(S(=O)(=O)c2cccc(F)c2)CC3)cc1`, the AC50 is > 39 µM (inactive).

As for `COc1ccc(-c2nc(CN(c3ccccc3)S(=O)(=O)c3ccccc3)c(C)o2)cc1`, the half-maximal activity concentration (AC50) was 9.08 µM.

Turning to `CCc1ccc(S(=O)(=O)Nc2ccc(-c3nc(-c4ccc(C)cc4C)co3)cc2)cc1`, the AC50 was 8.52 µM.

Regarding `COc1ccc(CNC2=NCCNC23CCN(S(=O)(=O)c2ccc(CC(C)C)cc2)CC3)cc1`, the AC50 is 6.46 µM.

For the compound `COc1ccc(-c2nc(NC(C)C)c3ccccc3n2)cc1`, the AC50 is > 39 µM (inactive).

Take `O=C(Nc1ccc2c(c1)OCO2)N1C[C@@H]2N[C@H](C1)C2c1ccc(C=Cc2ccccc2)cc1` (stereo partly specified): the half-maximal activity concentration (AC50) is 4.2 µM and 3.84 µM.

Regarding `COc1ccc(OC)c(S(=O)(=O)N2CCc3c([nH]c4ccccc34)C2c2cccc(F)c2)c1` (stereo unspecified), the AC50 is > 39 µM (inactive).

For `COc1cccc(C(=O)Nc2ccc3c(c2)C(=O)N(C)[C@@H]2CC[C@H](CC(=O)N[C@H](C)c4ccccc4)O[C@@H]2CO3)c1`, the half-maximal activity concentration (AC50) is 19.4 µM.

In the case of `O=S(=O)(c1ccc(Cl)s1)N1CCC2(CC1)NCCN=C2NCc1ccc2c(c1)OCO2`, the AC50 was 34.8 µM.

In the case of `Clc1cncc(OC[C@H]2CO[C@@H]3CN(Cc4cccs4)C[C@@H]23)c1`, the concentration at half-maximal activity (AC50) is 15.3 µM.

Consider `COc1ccc(N(Cc2nc(-c3ccc(C)cc3)oc2C)S(=O)(=O)c2ccccc2C)cc1`, for which the AC50 is 31.9 µM.

Take `C=C(C)[C@@H]1CC[C@]2(C(=O)O)CC[C@]3(C)[C@H](CC[C@@H]4[C@@]5(C)CC[C@H](O)C(C)(C)[C@@H]5CC[C@]43C)[C@@H]12`: the AC50 is 30 µM.

Consider `N#C[C@H]1[C@@H](c2ccc(C3=CCCCC3)cc2)[C@@H](CO)N1C(=O)Nc1ccccc1F`, for which the AC50 was 23.2 µM.

With `O=C(Nc1ccccc1F)N1CCCCN2[C@@H](CO)[C@@H](c3ccc(/C=C/c4ccccc4)cc3)[C@@H]2C1`, the AC50 is 22 µM.

Regarding `CC(C)C#Cc1ccc([C@@H]2[C@H](CO)N3C(=O)CN(S(=O)(=O)c4ccccc4)C[C@@H]23)cc1`, the AC50 was > 39 µM (inactive).

Take `CCc1ccc(S(=O)(=O)N2CCC3(CC2)NCCN=C3NCc2ccccc2)cc1`: the AC50 is 21.8 µM.

With `NCCCCCCCCCCNS(=O)(=O)c1cccc2c(Cl)cccc12`, the AC50 is 21.2 µM.

With `CC(C)CNc1nc2c(cc1C(=O)NC(C)C)CCN(c1ccncn1)CC2`, the AC50 was 26.5 µM.

Take `CCN1CCN(c2nc(-c3ccc(OC)cc3)nc3ccccc23)CC1`: the concentration at half-maximal activity (AC50) was 17.4 µM.

As to `Cc1nc(CCNC(=O)C2CCN(S(=O)(=O)c3ccc(C(C)(C)C)cc3)CC2)cs1`, the half-maximal activity concentration (AC50) was 31.4 µM.

For `Cc1ccccc1S(=O)(=O)N1C[C@@H]2N[C@H](C1)C2c1ccc(/C=C/c2ccccc2)cc1` (stereo partly specified), the AC50 is 9.34 µM.

For `CC(C)C#Cc1ccc([C@H]2[C@@H](CO)N3C(=O)CN(S(=O)(=O)c4ccccc4)C[C@H]23)cc1`, the AC50 is 13.6 µM.

For the compound `CCc1nc(OCC(=O)Nc2ccccc2C(=O)OC)c2ccccc2n1`, the AC50 was > 39 µM (inactive).

Take `Cc1nc(CCNC(=O)[C@H]2CCCN2S(=O)(=O)c2ccccc2)cs1`: the AC50 is 32.3 µM.

As for `O=C(Cc1ccccn1)N1CC(=O)N2[C@H](CO)[C@@H](c3ccc(C#CCC4CCCC4)cc3)[C@@H]2C1`, the AC50 was 9.77 µM and 15.5 µM.

In the case of `CCC[C@@]1(CCc2ccccc2)CC(=O)C([C@H](CC)c2cccc(NS(=O)(=O)c3ccc(C(F)(F)F)cn3)c2)C(=O)O1` (stereo partly specified), the AC50 was 17.3 µM.

Take `CCCN(C/C=C/I)C1CCc2cccc(O)c2C1` (stereo unspecified): the concentration at half-maximal activity (AC50) is 30.9 µM.

Take `O=C(Nc1ccc(F)cc1)N1CC(=O)N2[C@H](CO)[C@@H](c3ccc(-c4cccc(F)c4)cc3)[C@@H]2C1`: the concentration at half-maximal activity (AC50) was 19.9 µM.

For `OC[C@@H]1[C@@H](c2ccc(-c3cccc(F)c3)cc2)[C@@H]2CN(Cc3cncnc3)CCCCN12`, the concentration at half-maximal activity (AC50) was 36.1 µM.

As to `Cc1ccc(-c2cc(C(F)(F)F)nn2-c2ccc(S(N)(=O)=O)cc2)cc1`, the AC50 was 22.2 µM.

For `CCOc1ccccc1NS(=O)(=O)c1cc2c3c(c1)CCC(=O)N3CCC2`, the half-maximal activity concentration (AC50) is 26.1 µM.

Take `O=S(=O)(c1cccs1)N1CCCCN2[C@H](CO)[C@@H](c3ccc(/C=C/c4ccccc4)cc3)[C@@H]2C1`: the AC50 is 22 µM.

For the compound `Cc1ccc(-c2nc(CN(c3ccccc3)S(=O)(=O)c3ccccc3)c(C)o2)cc1`, the concentration at half-maximal activity (AC50) is 10.3 µM.

As to `C[C@H](CO)N1C[C@H](C)[C@H](CN(C)C(=O)Nc2ccc(C(F)(F)F)cc2)Oc2c(NC(=O)c3ccc(-c4nccs4)cc3)cccc2C1=O`, the AC50 is 18 µM.

As to `Clc1cccc(CN2CCC3(COCc4cnc(-c5ccccc5)nc43)C2)c1` (stereo unspecified), the AC50 was 18.2 µM and 10.4 µM.

Regarding `CN1C(=O)c2cc(NC(=O)c3cccc(F)c3)ccc2OC[C@@H]2O[C@H](CC(=O)NCC3CCCCC3)CC[C@@H]21`, the AC50 was 18.6 µM and 22.1 µM.

With `Clc1ccc(-n2ncc3c(NCc4cccc(Cl)c4)ncnc32)cc1`, the concentration at half-maximal activity (AC50) is 16.9 µM.

`O=C(Nc1ccc(F)cc1)N1CC(=O)N2[C@H](C1)[C@H](c1ccc(-c3cccc(F)c3)cc1)[C@@H]2CO`: the AC50 was 17.9 µM.

For the compound `C[C@@H]1CN([C@@H](C)CO)C(=O)Cc2cc(NC(=O)C3CCCCC3)ccc2O[C@@H]1CN(C)Cc1ccc(Cl)c(Cl)c1`, the concentration at half-maximal activity (AC50) is 15.1 µM and 5.01 µM.

`Cc1ccc(C)c(NC(=O)N2CCN(Cc3nc(-c4cccc(Cl)c4)oc3C)CC2)c1`: the AC50 is > 39 µM (inactive).

For the compound `O=C1CCc2cc(S(=O)(=O)NCCc3ccccc3)cc3c2N1CCC3`, the concentration at half-maximal activity (AC50) was 14 µM.

For the compound `CN(C)C(=O)c1cccc(-c2ccc3c(c2)[C@@H]2[C@@H](CCN2C(=O)Cc2ccccc2)[C@@H](CO)N3)c1`, the concentration at half-maximal activity (AC50) is 17.6 µM.

With `CC(C)CC#Cc1ccc([C@H]2[C@@H](CO)N3C(=O)CN(C(=O)Nc4cc(F)ccc4F)C[C@H]23)cc1`, the AC50 is 22.1 µM and 15.7 µM.

`Clc1ccccc1-c1nc(NCCCN2CCN(c3ccccc3)CC2)c2ccccc2n1`: the AC50 is > 39 µM (inactive).

In the case of `CNC(=O)NCC1CCC2(CCN(Cc3ccccc3)CC2)CO1` (stereo unspecified), the concentration at half-maximal activity (AC50) was 26.3 µM.

As to `Cc1cc(C)c(S(=O)(=O)N2CCC(C(=O)NCCc3csc(-c4ccccc4)n3)CC2)cc1C`, the half-maximal activity concentration (AC50) was 14.7 µM.

For the compound `COc1ccc(-c2nc(N3CCOCC3)c3ccccc3n2)cc1`, the AC50 was 36.1 µM.

On to `OC[C@H]1[C@H](c2ccc(C#Cc3ccccc3F)cc2)[C@@H]2CN(CC3CCOCC3)CCCCN12`, for which the AC50 is 9.56 µM.

With `CCOc1ccc(-c2nc(CN(c3ccccc3OC)S(=O)(=O)c3ccccc3)c(C)o2)cc1`, the AC50 is 8.3 µM.

On to `Cc1ccccc1-c1ccc([C@@H]2[C@@H](CO)N3CCCCN(S(=O)(=O)Cc4ccccc4)C[C@H]23)cc1`, for which the AC50 was 19.8 µM.

Consider `CCCc1cc(C2CCCN2C(=O)Cn2nc(C(F)(F)F)c3c2CCCC3)no1` (stereo unspecified), for which the concentration at half-maximal activity (AC50) was 21.6 µM.

As to `O=C(Cc1ccc(Cl)cc1)N1CC2(CCN(Cc3ccc(C(F)(F)F)cc3)CC2)C1`, the concentration at half-maximal activity (AC50) was 22.2 µM.

Turning to `C/C=C/c1ccc(C2[C@H]3CNC[C@@H]2N3C(=O)NC2CCCCC2)cc1` (stereo partly specified), the AC50 is 9.23 µM and 7.74 µM.

Regarding `CCOc1ccc(-c2nc(CN(c3cccc(OC)c3)S(=O)(=O)c3ccccc3)c(C)o2)cc1`, the AC50 is 6.87 µM.

In the case of `O=C(Nc1ccc(Cl)cc1)N1[C@@H]2CNC[C@H]1C2c1ccc(-c2ccccc2)cc1` (stereo partly specified), the half-maximal activity concentration (AC50) is 2.02 µM and 2.94 µM.

With `C(=C\c1ccc(C2[C@@H]3CN(Cc4nccs4)C[C@H]2N3)cc1)/c1ccccc1` (stereo partly specified), the AC50 was 17.1 µM.

`COCC(=O)N1CCC2(CC1)CN(Cc1nccs1)CCO2`: the AC50 was 17.9 µM.

As to `CCOc1ccccc1-c1nc(CN(c2ccccc2OC)S(=O)(=O)c2ccccc2C)c(C)o1`, the AC50 is 8.83 µM.

For `O=C(CC1Nc2c3ccccc3nc(=S)n2C1=O)NCCN1CCN(c2cccc(Cl)c2)CC1` (stereo unspecified), the AC50 was 37.1 µM.

As to `COc1ccc(S(=O)(=O)N(Cc2nc(-c3ccccc3OC)oc2C)c2ccccc2OC)cc1`, the AC50 is 13.7 µM.

`COc1ccccc1NC(=O)Nc1ccc(-c2nc(-c3ccc(C)cc3C)co2)cc1`: the concentration at half-maximal activity (AC50) is 31.9 µM.

As to `CC(=O)O.CC(=O)O.[Cl][Pt+2][Cl].[NH-]C1CCCCC1.[NH2-]`, the AC50 was 25.4 µM.

With `O=C(Nc1cccc(F)c1)N1CCCCN2[C@H](CO)[C@@H](c3ccc(C#Cc4cccnc4)cc3)[C@@H]2C1`, the half-maximal activity concentration (AC50) was 16 µM.

For `COc1ccccc1NC(=O)N1C[C@@H]2N[C@H](C1)C2c1ccc(/C=C/c2ccccc2)cc1` (stereo partly specified), the half-maximal activity concentration (AC50) was 6.84 µM and 4.45 µM and 4.22 µM.

As to `COc1ccc(NC(=O)N2CCCCN3[C@H](CO)[C@@H](c4ccc(-c5ccccc5F)cc4)[C@@H]3C2)cc1`, the concentration at half-maximal activity (AC50) is 29.6 µM.

Turning to `CN1C(=O)c2cc(NC(=O)Cc3cccs3)ccc2OC[C@H]2O[C@@H](CC(=O)NCc3ccc(-c4ccccc4)cc3)CC[C@@H]21`, the AC50 was 12.8 µM.

For the compound `Cc1ccc(S(=O)(=O)N2CCC3(CC2)NCCN=C3NCc2ccc(Cl)cc2)cc1C`, the AC50 is 8.04 µM.

For `Cc1ccc(CN2CC3CN(Cc4cccc(F)c4)CC3C2)s1` (stereo unspecified), the AC50 was 9.23 µM.

As for `O=C(Cc1ccccn1)N1CC(=O)N2[C@H](CO)[C@@H](c3ccc(C#CCC4CCCC4)cc3)[C@H]2C1`, the concentration at half-maximal activity (AC50) is 15.8 µM.

Take `O=C(CC1N=C2c3ccccc3N=C(SCc3ccccc3F)N2C1=O)NC1CCCCC1` (stereo unspecified): the AC50 is 19.1 µM.
